Numbers after ± are expanded uncertainties.
Conditions: Liquid, Buoyancy - hydrostatic balance

CCc1ccccc1 [ethylbenzene]
mass density [kg/m3]
Conditions | 292.25 K | 313.45 K | 336.55 K | 358.81 K | 382.95 K | 408.05 K | 434.45 K | 461.85 K | 490.15 K
100 kPa | 867 ± 10 | 849.1 ± 10 | 828.7 ± 10 | 808.4 ± 10 | – | – | – | – | –
5000 kPa | 870.8 ± 10 | 853.1 ± 10 | 833.6 ± 10 | 814.5 ± 10 | 793 ± 10 | 770.4 ± 10 | 746 ± 10 | 718.6 ± 10 | 687 ± 10
9900 kPa | 874 ± 10 | – | 838.5 ± 10 | 820 ± 10 | 799 ± 10 | 777.3 ± 10 | 754.4 ± 10 | 728.8 ± 10 | 700 ± 10
19700 kPa | 881.3 ± 10 | 864.4 ± 10 | 845.8 ± 10 | 827.6 ± 10 | 808.1 ± 10 | 788.5 ± 10 | 768.1 ± 10 | 746.2 ± 10 | 720.9 ± 10
29500 kPa | 887.1 ± 10 | 871.4 ± 10 | 854 ± 10 | 836.8 ± 10 | 818.2 ± 10 | 799.7 ± 10 | 780.5 ± 10 | 760 ± 10 | 737.2 ± 10
39300 kPa | 893 ± 10 | 877.6 ± 10 | 860.9 ± 10 | 844.8 ± 10 | 827.1 ± 10 | 809.5 ± 10 | 791 ± 10 | 771.7 ± 10 | 750.7 ± 10
49100 kPa | 898.5 ± 10 | 883.6 ± 10 | 867.8 ± 10 | 852.4 ± 10 | 835.1 ± 10 | 817.9 ± 10 | 800.4 ± 10 | 782.3 ± 10 | 762.9 ± 10
58900 kPa | 903.8 ± 10 | 889.4 ± 10 | 873.6 ± 10 | 858.6 ± 10 | 842.5 ± 10 | 826 ± 10 | 808.6 ± 10 | 791 ± 10 | 773.2 ± 10

CO [methanol]
mass density [kg/m3]
Conditions | 298.15 K | 323.15 K | 348.15 K | 373.15 K | 398.15 K | 423.15 K | 448.15 K | 473.15 K | 498.15 K
100 kPa | 792.6 ± 10 | 770.3 ± 10 | – | – | – | – | – | – | –
5000 kPa | 796.2 ± 10 | 774.2 ± 10 | 748.9 ± 10 | 721.1 ± 10 | 690 ± 10 | 652.8 ± 10 | 610.4 ± 10 | 553.4 ± 10 | –
9900 kPa | 801 ± 10 | 778.2 ± 10 | 753.9 ± 10 | 727.7 ± 10 | 697.6 ± 10 | 665.2 ± 10 | 628.9 ± 10 | 585 ± 10 | 525 ± 10
19700 kPa | 808.4 ± 10 | 787 ± 10 | 764.1 ± 10 | 739.3 ± 10 | 712.8 ± 10 | 683.6 ± 10 | 652.4 ± 10 | 620.2 ± 10 | 584.8 ± 10
29500 kPa | 816 ± 10 | 795 ± 10 | 773.1 ± 10 | 750.4 ± 10 | 725.4 ± 10 | 698.8 ± 10 | 670.8 ± 10 | 642 ± 10 | 613.4 ± 10
39300 kPa | 823.8 ± 10 | 803.4 ± 10 | 782.6 ± 10 | 760.2 ± 10 | 736 ± 10 | 710.8 ± 10 | 685.6 ± 10 | 660.6 ± 10 | 636 ± 10
49100 kPa | 830 ± 10 | 811 ± 10 | 790.9 ± 10 | 769.6 ± 10 | 747.2 ± 10 | 723.9 ± 10 | 700 ± 10 | 677.2 ± 10 | 655 ± 10
58900 kPa | 836.3 ± 10 | 818.2 ± 10 | 798.9 ± 10 | 778.2 ± 10 | 757 ± 10 | 735 ± 10 | 713 ± 10 | 691.2 ± 10 | 670 ± 10
